# Laboratory results: patent publication US20140080704A1, “SUBSTITUTED VINYL AND ALKINYL CYCLOHEXENOLS AS ACTIVE AGENTS AGAINST ABIOTIC STRESS IN PLANTS” (priority 2011, published 2014)
# Legend:
# BRSNS (Brassica napus) = test: Drought stress test on greenhouse crop plants, spray application, efficacy EF (BRSNS); type: in vivo; settings: dosage 25 g/ha, 600 l/ha water, mean of three results
# Description: (§1) Seeds of monocotyledonous and dicotyledonous crop plants were laid out in sandy loam in wood-fiber pots, covered with soil and cultivated in a greenhouse under good growth conditions. The test plants were treated at the early leaf stage (BBCH10-BBCH13). To ensure uniform water supply before commencement of stress, the potted plants were supplied with the maximum amount of water immediately beforehand by dam irrigation and, after application, transferred in plastic inserts in order to prevent subsequent, excessively rapid drying. The inventive compounds, formulated in the form of wettable powders (WP), wettable granules (WG), suspension concentrates (SC) or emulsion concentrates (EC), were sprayed onto the green parts of the plants as an aqueous suspension at an equivalent water application rate of 600 l/ha with addition of 0.2% wetting agent (agrotin). Substance application is followed immediately by stress treatment of the plants (cold or drought stress). For cold stress treatment, the plants were kept under the following controlled conditions: • “day”: 12 hours with illumination at 8° C. • “night”: 12 hours without illumination at 1° C. […] The intensity of damage was first assessed as a percentage (100%=plants have died, 0%=like control plants). […]
# ZEAMX (Zea mays) = test: Drought stress test on greenhouse crop plants, spray application, efficacy EF (ZEAMX); type: in vivo; settings: dosage 25 g/ha, 600 l/ha water, mean of three results
# Description: as §1
compound,measurement,setting,value
"CC1=CC(=O)C2CC2(C)C1(O)C#CC1=CC(=O)OC1 (centres unmarked) [I.4-54, 4-[(2-hydroxy-1,3-dimethyl-5-oxobicyclo[4.1.0]hept-3-en-2-yl)ethynyl]furan-2(5H)-one]",EF (BRSNS): efficacy = percentage reduction in the intensity of damage,BRSNS (Brassica napus),>5%
same,EF (ZEAMX): efficacy = percentage reduction in the intensity of damage,ZEAMX (Zea mays),>5%
